These results are taken from ChEMBL document CHEMBL4190352, “Continued SAR exploration of 1,2,4-thiadiazole-containing scaffolds in the design of free fatty acid receptor 1 (GPR40) agonists” (Eur J Med Chem, 2017).

Holding throughout (assay type): functional, cell-based
Assay [1] concerns the target T1, Free fatty acid receptor 1 (Homo sapiens, UniProt O14842). The experiment in a line: Agonist activity at human GPR40/FFA1 expressed in CHO cells assessed as increase in calcium flux at 1 uM by Fluo-8 AM dye based FLIPR method relative to 10 uM GW9508.
The target of assay [2] is T1, Free fatty acid receptor 1. The experiment in a line: Agonist activity at human GPR40/FFA1 expressed in CHO cells assessed as increase in calcium flux at 1 uM by Fluo-8 AM dye based FLIPR method. On the technique in general: Calcium flux is commonly read through the fluorescence of an indicator in the cells.
Assay [3] deals with T2, Free fatty acid receptor 3 (Homo sapiens) (UniProt O14843).
T2 sequence (whole entry): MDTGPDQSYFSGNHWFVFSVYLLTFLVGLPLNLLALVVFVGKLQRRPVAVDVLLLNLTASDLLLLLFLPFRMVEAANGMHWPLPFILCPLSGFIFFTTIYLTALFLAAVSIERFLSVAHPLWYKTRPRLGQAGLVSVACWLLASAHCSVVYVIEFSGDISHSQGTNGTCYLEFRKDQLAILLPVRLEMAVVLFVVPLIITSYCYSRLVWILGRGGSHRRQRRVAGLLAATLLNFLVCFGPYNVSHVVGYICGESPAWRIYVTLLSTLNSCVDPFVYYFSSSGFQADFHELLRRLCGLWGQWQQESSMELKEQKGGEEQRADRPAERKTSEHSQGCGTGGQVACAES
The experiment in a line: Agonist activity at GPR41/FFA3 (unknown origin) expressed in CHO cells assessed as increase in calcium flux at 10 uM by Fluo-8 AM dye based FLIPR method.

For assay [4], the target named is T3, Free fatty acid receptor 4 (Homo sapiens) (UniProt Q5NUL3).
T3 sequence (whole entry): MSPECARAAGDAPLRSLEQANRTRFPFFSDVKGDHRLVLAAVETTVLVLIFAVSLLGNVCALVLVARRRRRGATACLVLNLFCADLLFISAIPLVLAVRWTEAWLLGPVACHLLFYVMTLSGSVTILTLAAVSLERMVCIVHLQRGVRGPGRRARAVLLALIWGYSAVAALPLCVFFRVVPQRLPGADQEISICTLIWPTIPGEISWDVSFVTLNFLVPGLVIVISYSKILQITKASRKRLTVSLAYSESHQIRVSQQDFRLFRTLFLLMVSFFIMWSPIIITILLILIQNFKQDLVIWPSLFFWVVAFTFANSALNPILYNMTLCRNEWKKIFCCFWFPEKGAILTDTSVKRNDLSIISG
The experiment in a line: Agonist activity at GPR120/FFA4 (unknown origin) expressed in CHO cells assessed as increase in calcium flux at 10 uM by Fluo-8 AM dye based FLIPR method.

Assay [5] addresses T4, Free fatty acid receptor 2 (Homo sapiens) (UniProt O15552).
T4 sequence (whole entry): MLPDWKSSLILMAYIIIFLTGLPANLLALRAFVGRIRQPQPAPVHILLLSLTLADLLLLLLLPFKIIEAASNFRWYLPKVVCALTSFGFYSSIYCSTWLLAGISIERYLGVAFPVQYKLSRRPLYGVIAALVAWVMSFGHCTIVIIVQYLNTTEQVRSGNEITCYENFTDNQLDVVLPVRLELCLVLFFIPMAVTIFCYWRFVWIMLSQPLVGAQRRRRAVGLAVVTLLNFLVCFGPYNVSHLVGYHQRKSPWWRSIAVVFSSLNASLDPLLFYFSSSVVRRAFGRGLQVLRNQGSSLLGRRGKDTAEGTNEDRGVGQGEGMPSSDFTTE
The experiment in a line: Agonist activity at GPR43/FFA2 (unknown origin) expressed in CHO cells assessed as increase in calcium flux at 10 uM by Fluo-8 AM dye based FLIPR method.

The source made the active and inactive calls. The rule behind the calls is not given here.

T1 sequence (O14842 whole entry): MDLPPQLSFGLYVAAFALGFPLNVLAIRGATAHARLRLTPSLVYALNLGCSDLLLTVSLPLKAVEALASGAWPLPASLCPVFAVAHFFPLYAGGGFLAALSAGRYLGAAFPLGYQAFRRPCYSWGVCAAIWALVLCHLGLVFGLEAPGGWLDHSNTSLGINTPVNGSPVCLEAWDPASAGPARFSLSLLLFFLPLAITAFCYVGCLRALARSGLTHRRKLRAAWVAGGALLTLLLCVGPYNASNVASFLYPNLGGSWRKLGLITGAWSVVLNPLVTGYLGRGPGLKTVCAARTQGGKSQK

Usually EC50 stands for the concentration needed to bring the measured effect to its halfway point. With `Cc1cccc(NC(=O)c2nnc(C(=O)Nc3ccc(OCC(=O)O)cc3)s2)c1C`, the Activity in assay [1] amounted to 6.6%. In assay [2], the EC50 is above 10 µM.
For `O=C(O)COc1ccc(NC(=O)c2nnc(C(=O)Nc3ccc(F)cc3F)s2)cc1` the same measures were 6.6% and above 10 µM.
Turning to `Cc1ccc(OCc2nnc(C(=O)Nc3ccc(CCC(=O)O)cc3)s2)cc1`, the outcome in assay [3], in assay [4] and in assay [5] was inactive. Besides, in assay [1], the Activity stood at 76.9%. In addition, the 50% effective concentration (EC50) in assay [2] turned out to be 2.17 µM.
Regarding `O=C(O)CCc1ccc(NC(=O)c2nnc(COc3ccc4c(c3)CCC4)s2)cc1`, the outcome in assay [3], in assay [4] and in assay [5] was inactive. For the same compound, the Activity in assay [1] came out at 91.2%. In assay [2], the EC50 was 1.38 µM.
With `O=C(O)CCc1ccc(NC(=O)c2nnc(Cc3cccc(Cl)c3)s2)cc1`, the outcome in assay [3], in assay [4] and in assay [5] was inactive. The Activity in assay [1] is 79.4%. The EC50 in assay [2] was determined as 2.39 µM.
`Cc1cccc(OCc2nnc(C(=O)Nc3ccc(CCC(=O)O)cc3)s2)c1`: the result in assay [3], in assay [4] and in assay [5] was inactive. In addition, the Activity in assay [1] was 82.4%. Besides, the EC50 in assay [2] was determined as 3.26 µM.
Regarding `O=C(O)CCc1ccc(NC(=O)c2nnc(Cc3ccccc3)s2)cc1`, the outcome in assay [3], in assay [4] and in assay [5] was inactive. Moreover, the Activity in assay [1] is 70.1%. In assay [2], the EC50 was determined as 3.67 µM.
With `O=C(O)CCc1ccc(NC(=O)c2nnc(COc3cccc(C(F)(F)F)c3)s2)cc1`, the result in assay [3], in assay [4] and in assay [5] was inactive. The Activity in assay [1] was 70.1%. Further, the EC50 in assay [2] was 3.09 µM.
`Cc1nnc(NC(=O)c2nnc(C(=O)Nc3ccc(OCC(=O)O)cc3)s2)s1`: the Activity in assay [1] amounted to 9.8%. Further, in assay [2], the EC50 was above 10 µM.
The matching figures for `O=C(O)COc1ccc(NC(=O)c2nnc(C(=O)Nc3ccc(Br)cc3)s2)cc1`: 5.9% and above 10 µM.
As for `O=C(O)CCc1ccc(NC(=O)c2nnc(CC(c3ccccc3)c3ccccc3F)s2)cc1` (centres undefined), the result in assay [3], in assay [4] and in assay [5] was inactive. The Activity in assay [1] amounted to 68.6%. Moreover, in assay [2], the EC50 is 1.02 µM.
With `O=C(O)CCc1ccc(NC(=O)c2nnc(CC(c3ccccc3)c3ccc4c(c3)OCO4)s2)cc1` (centres undefined), the result in assay [3], in assay [4] and in assay [5] was inactive. In assay [1], the Activity worked out at 60.3%. The EC50 in assay [2] came out at 4.12 µM.
As for `O=C(O)CCc1ccc(NC(=O)c2nnc(Cc3ccc(Cl)cc3)s2)cc1`, the outcome in assay [3], in assay [4] and in assay [5] was inactive. The Activity in assay [1] was 72.3%. Besides, in assay [2], the EC50 was 2.39 µM.
Take `COc1ccc(OCc2nnc(C(=O)Nc3ccc(CCC(=O)O)cc3)s2)cc1`: the result in assay [3], in assay [4] and in assay [5] was inactive. The Activity in assay [1] stood at 72.5%. The EC50 in assay [2] was 2.43 µM.
`O=C(O)COc1ccc(NC(=O)c2nnc(C(=O)Nc3ccc(F)c(F)c3)s2)cc1`: the Activity in assay [1] came to 6.6%. In addition, the EC50 in assay [2] was above 10 µM.
As for `Cc1ccc(OCc2nnc(C(=O)Nc3ccc(CCC(=O)O)cc3)s2)c(C)c1`, the outcome in assay [3], in assay [4] and in assay [5] was inactive. The Activity in assay [1] was found to be 74.7%. In addition, the EC50 in assay [2] was 2.54 µM.
For the compound `O=C(O)CCc1ccc(NC(=O)c2nnc(Cc3cccc(F)c3)s2)cc1`, the outcome in assay [3], in assay [4] and in assay [5] was inactive. In addition, the Activity in assay [1] is 60.3%. The EC50 in assay [2] turned out to be 5.02 µM.
Turning to `Cc1ccccc1OCc1nnc(C(=O)Nc2ccc(CCC(=O)O)cc2)s1`, the outcome in assay [3], in assay [4] and in assay [5] was inactive. Further, the Activity in assay [1] was 89.9%. In addition, in assay [2], the EC50 is 1.52 µM.
For the compound `Cc1ccc(C)c(OCc2nnc(C(=O)Nc3ccc(CCC(=O)O)cc3)s2)c1`, the outcome in assay [3], in assay [4] and in assay [5] was inactive. In addition, in assay [1], the Activity was 88.2%. Besides, the EC50 in assay [2] worked out at 1.53 µM.
On to `COc1ccc(C(Cc2nnc(C(=O)Nc3ccc(CCC(=O)O)cc3)s2)c2ccccc2)cc1` (centres undefined), for which the outcome in assay [3], in assay [4] and in assay [5] was inactive. Also, the Activity in assay [1] turned out to be 78.9%. For the same compound, the EC50 in assay [2] came to 1.35 µM.
With `CCOC(=O)c1ccc(NC(=O)c2nnc(C(=O)Nc3ccc(OCC(=O)O)cc3)s2)cc1`, the Activity in assay [1] was 9.4%. In assay [2], the EC50 is above 10 µM.
Regarding `O=C(O)CCc1ccc(NC(=O)c2nnc(COc3cccc(Cl)c3)s2)cc1`, the result in assay [3], in assay [4] and in assay [5] was inactive. In addition, the Activity in assay [1] was found to be 82.9%. The EC50 in assay [2] worked out at 1.57 µM.
As for `COc1ccc(C)cc1NC(=O)c1nnc(C(=O)Nc2ccc(OCC(=O)O)cc2)s1`, in assay [1], the Activity came to 6.6%. Besides, the EC50 in assay [2] is above 10 µM.
The matching figures for `O=C(O)COc1ccc(NC(=O)c2nnc(C(=O)Nc3ccc(Cl)cc3)s2)cc1`: 4.2% and above 10 µM.
In the case of `CCc1ccc(OCc2nnc(C(=O)Nc3ccc(CCC(=O)O)cc3)s2)cc1`, the result in assay [3], in assay [4] and in assay [5] was inactive. Besides, in assay [1], the Activity was 74.4%. For the same compound, the EC50 in assay [2] was determined as 1.17 µM.
Consider `O=C(O)COc1ccc(NC(=O)c2nnc(C(=O)Nc3ccccc3F)s2)cc1`, for which the Activity in assay [1] is 6%. Also, the EC50 in assay [2] was above 10 µM.
The matching figures for `Cc1cccc(NC(=O)c2nnc(C(=O)Nc3ccc(OCC(=O)O)cc3)s2)c1`: 6% and above 10 µM.
The matching figures for `Cc1ccc(NC(=O)c2nnc(C(=O)Nc3ccc(OCC(=O)O)cc3)s2)cc1C`: 2.8% and above 10 µM.
For `COc1cccc(NC(=O)c2nnc(C(=O)Nc3ccc(OCC(=O)O)cc3)s2)c1` the same measures were 9.2% and above 10 µM.
With `O=C(O)CCc1ccc(NC(=O)c2nnc(CC(c3ccccc3)c3ccc(Cl)cc3)s2)cc1` (centres undefined), the outcome in assay [3], in assay [4] and in assay [5] was inactive. In assay [1], the Activity was determined as 84.9%. The EC50 in assay [2] was 2.71 µM.
Take `Cc1ccccc1NC(=O)c1nnc(C(=O)Nc2ccc(OCC(=O)O)cc2)s1`: the Activity in assay [1] came to 6.6%. Moreover, in assay [2], the EC50 was above 10 µM.
For `O=C(O)COc1ccc(NC(=O)c2nnc(C(=O)Nc3ccc(F)cc3)s2)cc1` the same measures were 6% and above 10 µM.
For `Cc1ccc(NC(=O)c2nnc(C(=O)Nc3ccc(OCC(=O)O)cc3)s2)cc1` the same measures were 7% and above 10 µM.
For the compound `O=C(O)COc1ccc(NC(=O)c2nnc(C(=O)Nc3ccccc3)s2)cc1`, the Activity in assay [1] came to 7.8%. Moreover, the EC50 in assay [2] is above 10 µM.
The matching figures for `CCOC(=O)c1cccc(NC(=O)c2nnc(C(=O)Nc3ccc(OCC(=O)O)cc3)s2)c1`: 6.4% and above 10 µM.
